Test results published in ChEMBL document CHEMBL1201862, “PubChem BioAssay data set” (2004).
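Grown in 96-well plates, cells were treated for 48 hours with each compound at five concentrations. Insufficient inhibition: endpoint recorded as highest concentration tested. Abbreviation: GI50, concentration required for 50% inhibition of growth.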 Activity calls are given as the source filed them. Cut-off read from the data, not from the text of the source: active = GI50 up to about 1.1 µM and inactive = higher.

Assays:
Assay in all cases: inhibition of tumour cell growth, NCI panel, 48 h
786-0 = system: 786-0
A549 = system: A549
ACHN = system: ACHN
CAKI-1 = system: CAKI-1
CCRF-CEM = system: CCRF-CEM
COLO 205 = system: COLO 205
DLD-1 = system: DLD-1
DMS-114 = system: DMS-114
DMS-273 = system: DMS-273
EKVX = system: EKVX
HCC 2998 = system: HCC 2998
HCT-116 = system: HCT-116
HCT-15 = system: HCT-15
HL-60 = system: HL-60
HOP-18 = system: HOP-18
HOP-62 = system: HOP-62
HOP-92 = system: HOP-92
HT-29 = system: HT-29
IGROV-1 = system: IGROV-1
K562 = system: K562
KM-20L2 = system: KM-20L2
KM12 = system: KM12
LOX IMVI = system: LOX IMVI
LXFL 529 = system: LXFL 529
M14 = system: M14
M19-MEL = system: M19-MEL
MOLT-4 = system: MOLT-4
Malme-3M = system: Malme-3M
NCI-H226 = system: NCI-H226
NCI-H23 = system: NCI-H23
NCI-H460 = system: NCI-H460
NCI-H522 = system: NCI-H522
OVCAR-3 = system: OVCAR-3
OVCAR-4 = system: OVCAR-4
OVCAR-5 = system: OVCAR-5
OVCAR-8 = system: OVCAR-8
RPMI-8226 = system: RPMI-8226
RXF 393 = system: RXF 393
SF-295 = system: SF-295
SF-539 = system: SF-539
SK-MEL-28 = system: SK-MEL-28
SK-MEL-2 = system: SK-MEL-2
SK-MEL-5 = system: SK-MEL-5
SN12C = system: SN12C
SNB-19 = system: SNB-19
SNB-75 = system: SNB-75
SNB-78 = system: SNB-78
SR = system: SR
SW-620 = system: SW-620
TK-10 = system: TK-10
U-251 = system: U-251
UACC-257 = system: UACC-257
UACC-62 = system: UACC-62
UO-31 = system: UO-31
XF498 = system: XF498
A498 = system: A498
RXF 631 = system: RXF 631
SF-268 = system: SF-268
SK-OV-3 = system: SK-OV-3

`CNC(=O)OCc1cc2ccncc2c2c1[nH]c1ccccc12` was tested, and the GI50 (786-0) was 26.7 µM (inactive), the GI50 (A549) was > 27.4 µM (inactive) and the GI50 (ACHN) was 5.47 µM (inactive). For the same molecule, the GI50 (CAKI-1) was 3.21 µM (inactive), the GI50 (CCRF-CEM) was 7.4 µM (inactive) and the GI50 (COLO 205) was > 28.3 µM (inactive). For the same molecule, the GI50 (DLD-1) was 5.89 µM (inactive), the GI50 (DMS-114) was > 100 µM (inactive) and the GI50 (DMS-273) was > 100 µM (inactive). The GI50 (EKVX) was > 100 µM (inactive), the GI50 (HCC 2998) was > 58.5 µM (inactive) and the GI50 (HCT-116) was 5.16 µM (inactive). For the same molecule, the GI50 (HCT-15) was over 23.8 µM, the GI50 (HL-60) was 19.1 µM (inactive) and the GI50 (HOP-18) was > 100 µM (inactive). For the same molecule, the GI50 (HOP-62) was 10 µM (inactive), the GI50 (HOP-92) was > 100 µM (inactive) and the GI50 (HT-29) was > 25.5 µM (inactive). For the same molecule, the GI50 (IGROV-1) was > 26.9 µM (inactive), the GI50 (K562) was 17.9 µM (inactive) and the GI50 (KM-20L2) was > 100 µM (inactive). The GI50 (KM12) was 5.09 µM (inactive), the GI50 (LOX IMVI) was > 22.1 µM (inactive) and the GI50 (LXFL 529) was > 39.6 µM (inactive). For the same molecule, the GI50 (M14) was > 100 µM (inactive), the GI50 (M19-MEL) was > 100 µM (inactive) and the GI50 (MOLT-4) was 4.05 µM (inactive). The GI50 (Malme-3M) was > 100 µM (inactive), the GI50 (NCI-H226) was > 100 µM (inactive) and the GI50 (NCI-H23) was > 100 µM (inactive). The GI50 (NCI-H460) was > 20.7 µM (inactive), the GI50 (NCI-H522) was 20.7 µM (inactive) and the GI50 (OVCAR-3) was > 100 µM (inactive). For the same molecule, the GI50 (OVCAR-4) was > 100 µM (inactive), the GI50 (OVCAR-5) was > 77.6 µM (inactive) and the GI50 (OVCAR-8) was 11.5 µM (inactive). For the same molecule, the GI50 (RPMI-8226) was > 88.3 µM (inactive), the GI50 (RXF 393) was 2.55 µM (inactive) and the GI50 (SF-295) was > 100 µM (inactive). The GI50 (SF-539) was > 42.6 µM (inactive), the GI50 (SK-MEL-28) was > 100 µM (inactive) and the GI50 (SK-MEL-2) was > 100 µM (inactive). The GI50 (SK-MEL-5) was > 100 µM (inactive), the GI50 (SN12C) was > 100 µM (inactive) and the GI50 (SNB-19) was > 53.7 µM (inactive). The GI50 (SNB-75) was > 40.4 µM (inactive), the GI50 (SNB-78) was > 72.6 µM (inactive) and the GI50 (SR) was 2.12 µM (inactive). The GI50 (SW-620) was 6.01 µM (inactive), the GI50 (TK-10) was > 100 µM (inactive) and the GI50 (U-251) was > 39.7 µM (inactive). For the same molecule, the GI50 (UACC-257) was > 100 µM (inactive), the GI50 (UACC-62) was > 100 µM (inactive) and the GI50 (UO-31) was > 100 µM (inactive). For the same molecule, the GI50 (XF498) was > 45.1 µM (inactive).

For `O=C1OC(c2ccccc2)(c2ccccc2)CC1CN1CCOCC1` (stereo unspecified), the GI50 (786-0) was 16.7 µM (inactive), the GI50 (A498) was > 100 µM (inactive) and the GI50 (A549) was 10.7 µM (inactive). For the same molecule, the GI50 (ACHN) was 17.7 µM (inactive), the GI50 (CCRF-CEM) was 2.77 µM (inactive) and the GI50 (COLO 205) was 6.18 µM (inactive). For the same molecule, the GI50 (DLD-1) was 17.1 µM (inactive), the GI50 (DMS-114) was 18 µM (inactive) and the GI50 (DMS-273) was 38.2 µM (inactive). The GI50 (EKVX) was 33.7 µM (inactive), the GI50 (HCC 2998) was 16.5 µM (inactive) and the GI50 (HCT-116) was 12.8 µM (inactive). The GI50 (HCT-15) was 16.1 µM, the GI50 (HL-60) was 6.61 µM (inactive) and the GI50 (HOP-18) was 14.6 µM (inactive). The GI50 (HOP-62) was > 100 µM (inactive), the GI50 (HT-29) was 1.95 µM (inactive) and the GI50 (IGROV-1) was > 100 µM (inactive). For the same molecule, the GI50 (K562) was 24.2 µM (inactive), the GI50 (KM-20L2) was 18.2 µM (inactive) and the GI50 (KM12) was 16.7 µM (inactive). For the same molecule, the GI50 (LOX IMVI) was 11.4 µM (inactive), the GI50 (LXFL 529) was 13.9 µM (inactive) and the GI50 (M14) was 17.1 µM (inactive). The GI50 (M19-MEL) was 15.9 µM (inactive), the GI50 (MOLT-4) was 24.5 µM (inactive) and the GI50 (Malme-3M) was 13.5 µM (inactive). For the same molecule, the GI50 (NCI-H23) was 20.6 µM (inactive), the GI50 (NCI-H460) was 60.7 µM (inactive) and the GI50 (NCI-H522) was 10.2 µM (inactive). For the same molecule, the GI50 (OVCAR-3) was 15.6 µM (inactive), the GI50 (OVCAR-4) was 23.1 µM (inactive) and the GI50 (OVCAR-5) was 29.2 µM (inactive). The GI50 (OVCAR-8) was 57.8 µM (inactive), the GI50 (RXF 631) was 18.5 µM (inactive) and the GI50 (SF-268) was 27.5 µM (inactive). The GI50 (SF-539) was 17.5 µM (inactive), the GI50 (SK-MEL-28) was 18.1 µM (inactive) and the GI50 (SK-MEL-2) was 17.9 µM (inactive). The GI50 (SK-MEL-5) was 29.3 µM (inactive), the GI50 (SK-OV-3) was 26.5 µM (inactive) and the GI50 (SN12C) was 12.5 µM (inactive). For the same molecule, the GI50 (SNB-19) was 44.7 µM (inactive), the GI50 (SNB-75) was 13.9 µM (inactive) and the GI50 (SR) was 3.08 µM (inactive). The GI50 (SW-620) was 5.07 µM (inactive), the GI50 (TK-10) was 14.2 µM (inactive) and the GI50 (U-251) was 25.4 µM (inactive). For the same molecule, the GI50 (UACC-257) was 5.98 µM (inactive), the GI50 (UACC-62) was 25.6 µM (inactive) and the GI50 (UO-31) was 29 µM (inactive).
